Patent US11738031B2, “Compositions and methods for preventing or treating muscle conditions” (The Board of Trustees of the Leland Stanford Junior …, priority 2017, dated 2023)
“Also recorded” adds a separate entry of the source. Where two headings read alike, the source gives them in different places.

How the values were obtained:
[1] = test system: endogenous MuSCs in tibialis anterior (TA) muscles; assay: BLI of endogenous MuSC expansion after intramuscular bupivacaine/dmPGE2 (Example 4); assay type: in vivo, mouse
Protocol: Double-transgenic Pax7^CreERT2;Rosa26-LSL-Luc mice were generated by crossing Pax7^CreERT2 mice and Rosa26-LSL-Luc mice obtained from Jackson Laboratory (Stock #005125). These genotypes were validated by appropriate PCR-based strategies. All mice from transgenic and wild-type strains were of young age (2-4 months). All experiments were conducted using age and gender-matched controls. As depicted in the experimental scheme shown in FIG. 23A, mice were treated with five consecutive daily intraperitoneal injections of tamoxifen to activate luciferase expression under the control of the Pax7 promoter. A week after the last tamoxifen injection, the tibialis anterior (TA) muscles were injected intramuscularly with 50 μL of a drug mixture containing 0.125%, 0.25%, or 0.5% bupivacaine (BPV) (Cayman Chemical Cat #16618) and 10 μg 16,16-dimethyl prostaglandin E2 (dmPGE2; Tocris, Catalog #4027) using a 30 gauge needle on a Hamilton syringe. The contralateral TA received 50 μL of a mixture containing 0.5% bupivacaine (BPV) and DMSO vehicle as baseline sham control. Bioluminescence was assayed at days 3, 7, 10 and 14 post-injury.
Bioluminescence imaging (BLI) was performed using a Xenogen-100 system, as previously described. Briefly, mice were anesthetized using isofluorane inhalation and administered 120 μL D-luciferin (0.1 mmol/kg, reconstituted in PBS; Caliper LifeSciences) by intraperitoneal injection. BLI was acquired with between 5-60 second exposure at F-stop=1.0 at 5 minutes after luciferin injection. Digital images were recorded and analyzed using Living Image software (Caliper LifeSciences). Images were analyzed with a consistent region-of-interest (ROI) placed over each hindlimb to calculate a bioluminescence signal. A bioluminescence signal was calculated in radiance (p s^−1 cm^−2 sr^−1) value of 10^4 to define a positive threshold signal over background. BLI imaging was performed bi-weekly for 2 weeks after coinjection of BPV with dmPGE2 or vehicle.
The data in FIGS. 23A-C and 24 are shown as the mean±s.e.m. with n=6 mice. […]

[2] = test system: muscle stem cells (MuSCs); assay: MuSC proliferation in culture, cell number count (hemocytometer); assay type: cell-based, mouse
Protocol: Muscle stem cell culture, treatment and lentiviral infection: Following isolation, we resuspended MuSCs in myogenic cell culture medium containing DMEM/F10 (50:50), 15% FBS, 2.5 ng ml^−1 fibroblast growth factor-2 (FGF-2 also known as bFGF) and 1% penicillin-streptomycin. We seeded MuSC suspensions at a density of 500 cells per cm^2 surface area. We maintained cell cultures at 37° C. in 5% CO2 and changed medium daily. For PGE2, 15-PGDH inhibitor and EP4 receptor antagonist treatment studies, we added 1-200 ng/ml Prostaglandin E2 (Cayman Chemical) (unless specified in the figure legends, 10 ng/ml was the standard concentration used), and/or 1 μM EP4 antagonist (ONO-AE3-208, Cayman Chemical), or 1 μM 15-PGDH inhibitor (SW033291, Cayman Chemical) to the MuSCs cultured on collagen coated dishes for the first 24 h. The cells were then trypsinized and cells reseeded onto hydrogels for an additional 6 days of culture. All treatments were compared to their solvent (DMSO) vehicle control. For stripped serum assays, we resuspended isolated MuSCs in medium containing DMEM/F10 (50:50), 15% charcoal stripped FBS (Gibco, cat #12676011), 2.5 ng ml^−1 bFGF and 1% penicillin-streptomycin. […]
Proliferation assays: To assay proliferation, we used three different assays (hemocytometer, VisionBlue, and EdU). […] For hemocytometer cell number count, we collected cells at indicated timepoints by incubation with 0.5% trypsin in PBS for 5 min at 37° C. and quantified them using a hemocytometer at least 3 times. Additionally, we used the VisionBlue Quick Cell Viability Fluorometric Assay Kit (BioVision, catalog #K303) as a readout for cell growth in culture. Briefly, we incubated MuSCs with 10% VisionBlue in culture medium for 3 h, and measured fluorescence intensity on a fluorescence plate reader (Infinite M1000 PRO, Tecan) at Ex=530-570 nm, Em=590-620 nm. […] We quantified EdU positive cells using the MetaMorph Image Analysis software (Molecular Devices). Data analyses were blinded, where researchers performing cell scoring were unaware of the treatment condition given to sample groups analyzed. […]

[3] = cited from earlier work; for half-life: in vivo

CCCCC(C)(C)[C@H](O)/C=C/[C@H]1[C@H](O)CC(=O)[C@@H]1C/C=C\CCCC(=O)O [dmPGE2, 16,16-dimethyl prostaglandin E2]
log fold change in BLI two weeks after injection ([1]; 50 μL into TA, BPV plus 10 μg dmPGE2 compared to BPV/vehicle, dmPGE2 only group): No detectable change
muscle regeneration vs dmPGE2 dose ([1]; as stated in summary of Example 4): more pronounced muscle regeneration

CCCCC[C@H](O)/C=C/[C@H]1[C@H](O)CC(=O)[C@@H]1C/C=C\CCCC(=O)O [PGE2, prostaglandin E2]
MuSC proliferation in medium with charcoal stripped serum ([2]; PGE2 10 ng/ml added to stripped serum medium, 7 days on hydrogels): divided upon addition of PGE2; also recorded: rescued this block in proliferation
increase in the number of MuSCs relative to controls ([2]; PGE2 10 ng/ml, acute 1-day exposure, counted one week later, young MuSCs on hydrogel): 6 fold
half-life in vivo [3]: relatively short
half-life [3]: 5 min
half-life ([3]; listed as Dinoprostone): less than 5 minutes
